Assay [1] deals with T1, HiBit-BRG1 fusion protein (Homo sapiens, UniProt P51532).
T1 construct: expressed in transfected cells
Briefly: HiBiT-BRG1 cell-based degradation assay (Nano-Glo HiBiT Lytic Detection, 24 h). As to conditions: HeLa cell line expressing HiBit-BRG1 and LgBit; for Dmax: read-out: BRG1 HiBit Degradation Maximum (%). The procedure, abridged: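 HeLa cells stably expressing HiBiT-BRG1 plus LgBit, 5000/well, treated 24 h, then lysed with Nano-Glo HiBiT lytic reagent and luminescence read. % degradation normalised between DMSO (high control) and 2 μM reference BRM/BRG1 degrader (low control).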
Background: With HiBiT, luminescence reflects the tagged protein that the partner subunit can reach.

A further assay addresses T2, HiBit-BRM fusion protein (Homo sapiens, UniProt P51531).
T2 construct: expressed in transfected cells
Briefly: HiBiT-BRM cell-based degradation assay (Nano-Glo HiBiT Lytic Detection, 24 h). As to conditions: HeLa cell line expressing HiBiT-BRM; for DC50: read-out: BRM HiBit Degradation IC50. The procedure, abridged: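 HeLa cells stably expressing HiBiT-BRM were treated for 24 h with compounds (10-point 3-fold dilutions, 30 μM final top dose, in duplicate). HiBiT was detected by lytic LgBiT complementation luminescence. % degradation was normalized to DMSO (high control) and 2 μM of a reference BRM/BRG1 degrader (low control).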

The mark [2] stands for this setting: read-out: BRMG1 HiBit Degradation IC50.

Bounds are passed on as bounds.

One may read the IC50 as the concentration that gives 50% inhibition.

T1 sequence (P51532 whole entry, the tested form may be a part): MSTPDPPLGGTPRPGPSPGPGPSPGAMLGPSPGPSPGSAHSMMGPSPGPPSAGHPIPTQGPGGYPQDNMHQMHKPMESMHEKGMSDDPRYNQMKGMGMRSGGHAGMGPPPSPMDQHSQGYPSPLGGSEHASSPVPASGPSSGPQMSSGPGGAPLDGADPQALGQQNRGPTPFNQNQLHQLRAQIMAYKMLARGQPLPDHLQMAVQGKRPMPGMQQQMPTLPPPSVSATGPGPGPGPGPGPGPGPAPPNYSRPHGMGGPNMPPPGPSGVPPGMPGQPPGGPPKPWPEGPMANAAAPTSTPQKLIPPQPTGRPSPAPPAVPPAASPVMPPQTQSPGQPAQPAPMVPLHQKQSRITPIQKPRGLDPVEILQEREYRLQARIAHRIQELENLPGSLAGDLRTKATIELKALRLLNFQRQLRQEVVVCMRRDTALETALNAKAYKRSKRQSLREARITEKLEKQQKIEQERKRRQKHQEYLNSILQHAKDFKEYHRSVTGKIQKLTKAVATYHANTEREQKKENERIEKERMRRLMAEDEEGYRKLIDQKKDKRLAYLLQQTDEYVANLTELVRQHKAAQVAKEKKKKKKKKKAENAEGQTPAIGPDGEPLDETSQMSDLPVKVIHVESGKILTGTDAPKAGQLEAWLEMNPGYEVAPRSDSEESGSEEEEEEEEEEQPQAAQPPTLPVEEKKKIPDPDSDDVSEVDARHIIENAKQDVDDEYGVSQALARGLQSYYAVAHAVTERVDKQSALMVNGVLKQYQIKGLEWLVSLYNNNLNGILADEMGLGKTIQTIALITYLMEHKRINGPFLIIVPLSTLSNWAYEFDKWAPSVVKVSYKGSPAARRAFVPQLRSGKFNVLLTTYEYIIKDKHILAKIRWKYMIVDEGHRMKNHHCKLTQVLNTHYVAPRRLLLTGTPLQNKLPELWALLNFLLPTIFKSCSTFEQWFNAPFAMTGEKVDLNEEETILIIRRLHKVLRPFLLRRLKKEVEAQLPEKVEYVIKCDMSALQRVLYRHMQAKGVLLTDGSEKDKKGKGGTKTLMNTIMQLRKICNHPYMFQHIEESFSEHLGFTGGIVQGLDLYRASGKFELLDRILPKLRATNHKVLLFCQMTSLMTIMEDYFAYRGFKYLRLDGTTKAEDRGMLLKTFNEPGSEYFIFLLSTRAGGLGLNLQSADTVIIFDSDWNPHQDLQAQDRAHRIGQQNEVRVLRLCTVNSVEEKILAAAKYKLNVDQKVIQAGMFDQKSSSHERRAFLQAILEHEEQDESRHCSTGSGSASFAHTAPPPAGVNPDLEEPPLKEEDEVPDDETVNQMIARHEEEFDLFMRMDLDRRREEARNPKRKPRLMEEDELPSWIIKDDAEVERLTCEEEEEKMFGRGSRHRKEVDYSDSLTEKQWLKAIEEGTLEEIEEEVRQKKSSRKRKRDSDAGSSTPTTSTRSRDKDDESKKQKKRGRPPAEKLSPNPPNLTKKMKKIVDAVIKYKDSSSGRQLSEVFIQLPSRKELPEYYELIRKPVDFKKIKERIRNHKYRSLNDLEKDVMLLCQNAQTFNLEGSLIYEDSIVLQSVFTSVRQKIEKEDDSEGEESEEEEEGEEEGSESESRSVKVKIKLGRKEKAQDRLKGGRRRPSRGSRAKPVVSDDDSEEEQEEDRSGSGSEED
T2 sequence (P51531 whole entry, the tested form may be a part): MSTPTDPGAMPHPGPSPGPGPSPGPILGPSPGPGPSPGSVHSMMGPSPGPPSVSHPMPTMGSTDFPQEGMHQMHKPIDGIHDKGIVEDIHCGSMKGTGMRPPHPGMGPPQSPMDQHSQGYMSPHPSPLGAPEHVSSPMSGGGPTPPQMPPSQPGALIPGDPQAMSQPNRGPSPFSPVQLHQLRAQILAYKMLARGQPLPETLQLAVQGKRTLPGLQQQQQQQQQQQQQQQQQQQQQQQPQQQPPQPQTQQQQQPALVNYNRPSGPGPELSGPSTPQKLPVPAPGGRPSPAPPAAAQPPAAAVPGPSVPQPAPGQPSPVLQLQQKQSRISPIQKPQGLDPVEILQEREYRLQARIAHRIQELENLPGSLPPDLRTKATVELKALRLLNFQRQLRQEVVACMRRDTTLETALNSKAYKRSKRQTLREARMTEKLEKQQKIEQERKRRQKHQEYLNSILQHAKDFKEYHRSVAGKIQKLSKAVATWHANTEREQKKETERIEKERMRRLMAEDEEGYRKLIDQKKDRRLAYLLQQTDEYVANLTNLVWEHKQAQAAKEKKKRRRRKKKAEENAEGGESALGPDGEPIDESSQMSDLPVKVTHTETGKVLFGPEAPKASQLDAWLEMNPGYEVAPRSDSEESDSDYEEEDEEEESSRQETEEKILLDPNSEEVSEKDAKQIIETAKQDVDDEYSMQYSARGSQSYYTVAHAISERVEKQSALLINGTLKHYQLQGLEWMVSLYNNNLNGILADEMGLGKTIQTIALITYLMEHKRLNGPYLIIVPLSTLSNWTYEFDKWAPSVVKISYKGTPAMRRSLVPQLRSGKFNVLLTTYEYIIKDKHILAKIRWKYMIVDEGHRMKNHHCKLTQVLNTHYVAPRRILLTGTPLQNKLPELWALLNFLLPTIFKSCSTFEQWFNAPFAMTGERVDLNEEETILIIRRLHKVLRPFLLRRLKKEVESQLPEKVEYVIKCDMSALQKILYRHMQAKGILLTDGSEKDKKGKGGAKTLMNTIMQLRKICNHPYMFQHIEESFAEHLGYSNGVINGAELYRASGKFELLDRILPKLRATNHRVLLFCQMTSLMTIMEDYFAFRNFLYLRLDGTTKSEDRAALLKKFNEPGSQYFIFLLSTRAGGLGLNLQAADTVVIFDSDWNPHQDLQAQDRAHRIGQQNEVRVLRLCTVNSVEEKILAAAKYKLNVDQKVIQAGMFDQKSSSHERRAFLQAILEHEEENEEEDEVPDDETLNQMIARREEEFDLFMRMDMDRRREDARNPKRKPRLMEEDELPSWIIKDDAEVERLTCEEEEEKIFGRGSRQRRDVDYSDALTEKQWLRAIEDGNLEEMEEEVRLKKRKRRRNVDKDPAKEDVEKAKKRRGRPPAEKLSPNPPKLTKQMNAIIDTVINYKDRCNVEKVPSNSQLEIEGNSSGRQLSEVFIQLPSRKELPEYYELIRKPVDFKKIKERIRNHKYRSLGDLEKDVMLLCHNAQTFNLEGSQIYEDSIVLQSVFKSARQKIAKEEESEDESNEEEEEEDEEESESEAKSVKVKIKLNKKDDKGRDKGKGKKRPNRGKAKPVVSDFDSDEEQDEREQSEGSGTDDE

Turning to `Cc1ncsc1-c1ccc(CNC(=O)[C@@H]2C[C@@H](O)CN2C(=O)[C@@H](NC(=O)CCCCCCCCCCCCCCC(=O)N2CC(c3cc4cc(-c5ccccc5O)nnc4[nH]3)C2)C(C)(C)C)cc1` [Compound 21, (2S,4R)-4-hydroxy-1-((S)-2-(16-(3-(3-(2-hydroxyphenyl)-7H-pyrrolo[2,3-c]pyridazin-6-yl)azetidin-1-yl)-16-oxohexadecanamido)-3,3-dimethylbutanoyl)-N-(4-(4-methylthiazol-5-yl)benzyl)pyrrolidine-2-carboxamide], in assay [1], the Dmax is less than 50%. The “BRM HiBit Degradation Maximum (%)” value on HiBit-BRM fusion protein is given as “C (“C” indicates maximum degradation < 50%)”.
As to `Cc1ncsc1-c1ccc([C@H](C)NC(=O)[C@@H]2C[C@@H](O)CN2C(=O)[C@@H](c2cc(N3CCN(CCC(=O)N4CC(c5cc6cc(-c7ccccc7O)nnc6[nH]5)C4)CC3)no2)C(C)C)cc1` (racemic) [Compound 268, (2S,4R)-4-hydroxy-1-[(2R)-2-{3-[4-(3-{3-[3-(2-hydroxyphenyl)-7H-pyrrolo[2,3-c]pyridazin-6-yl]azetidin-1-yl}-3-oxopropyl)piperazin-1-yl]-1,2-oxazol-5-yl}-3-methylbutanoyl]-N-[(1S)-1-[4-(4-methyl-1,3-thiazol-5-yl)phenyl]ethyl]pyrrolidine-2-carboxamide], the results for the DC50 (in assay [1] (setting [2]); on HiBit-BRM fusion protein) were greater than 1000 nM and greater than 100 nM, respectively. Further, the “BRM HiBit Degradation Maximum (%)” value at HiBit-BRM fusion protein is listed as “A (“A” indicates maximum degradation ≥ 75%)”.
As for `Cc1ncsc1-c1ccc([C@H](C)NC(=O)[C@@H]2C[C@@H](O)CN2C(=O)[C@@H](c2cc(OCCN(C)CCN3CC(c4cc5cc(-c6ccccc6O)nnc5[nH]4)C3)no2)C(C)C)cc1` (racemic) [Compound 59, (2S,4R)-4-hydroxy-1-((R)-2-(3-(2-((2-(3-(3-(2-hydroxyphenyl)-7H-pyrrolo[2,3-c]pyridazin-6-yl)azetidin-1-yl)ethyl)(methyl)amino)ethoxy)isoxazol-5-yl)-3-methylbutanoyl)-N-((S)-1-(4-(4-methylthiazol-5-yl)phenyl)ethyl)pyrrolidine-2-carboxamide], the Dmax in assay [1] was less than 50%. Moreover, on HiBit-BRM fusion protein, the “BRM HiBit Degradation Maximum (%)” value is recorded as “B (“B” indicates maximum degradation ≥ 50%)” and the DC50 was greater than 100 nM.
The corresponding values for `Cc1ncsc1-c1ccc([C@H](C)NC(=O)[C@@H]2C[C@@H](O)CN2C(=O)C(c2cc(OCCNC3(C(=O)O)CCc4[nH]c5nnc(-c6ccccc6O)cc5c4C3)no2)C(C)C)cc1` (relative stereo) [Compound 90, (6R*)-6-({2-[(5-{1-[(2S,4R)-4-hydroxy-2-{[(1S)-1-[4-(4-methyl-1,3-thiazol-5-yl)phenyl]ethyl]carbamoyl}pyrrolidin-1-yl]-3-methyl-1-oxobutan-2-yl}-1,2-oxazol-3-yl)oxy]ethyl}amino)-3-(2-hydroxyphenyl)-5H,7H,8H,9H-pyridazino[3,4-b]indole-6-carboxylic acid] are less than 50%, “A (“A” indicates maximum degradation ≥ 75%)” and greater than 1000 nM.
As for `Cc1ncsc1-c1ccc([C@H](C)NC(=O)[C@@H]2C[C@@H](O)CN2C(=O)[C@@H](c2cc(OCCN3CC(c4cc5cc(-c6cc(F)cc(Cl)c6O)nnc5[nH]4)C3)no2)C(C)C)cc1` (racemic) [Compound 287, (2S,4R)-1-((R)-2-(3-(2-(3-(3-(3-chloro-5-fluoro-2-hydroxyphenyl)-7H-pyrrolo[2,3-c]pyridazin-6-yl)azetidin-1-yl)ethoxy)isoxazol-5-yl)-3-methylbutanoyl)-4-hydroxy-N-((S)-1-(4-(4-methylthiazol-5-yl)phenyl)ethyl)pyrrolidine-2-carboxamide], the Dmax in assay [1] was less than 50%. Moreover, on HiBit-BRM fusion protein, the “BRM HiBit Degradation Maximum (%)” value is “B (“B” indicates maximum degradation ≥ 50%)” and the DC50 was greater than 100 nM.
Regarding `Cc1ncsc1-c1ccc([C@H](C)NC(=O)[C@@H]2C[C@@H](O)CN2C(=O)[C@@H](c2cc(N3CCN(C(=O)[C@H]4C[C@]5(Cc6cc(-c7ccccc7O)nnc6N5)C4)CC3)no2)C(C)C)cc1` [Compound 77, (2S,4R)-4-hydroxy-1-((R)-2-(3-(4-((1S,3r)-3′-(2-hydroxyphenyl)-5′,7′-dihydrospiro[cyclobutane-1,6′-pyrrolo[2,3-c]pyridazine]-3-carbonyl)piperazin-1-yl)isoxazol-5-yl)-3-methylbutanoyl)-N-((S)-1-(4-(4-methylthiazol-5-yl)phenyl)ethyl)pyrrolidine-2-carboxamide], the “BRG1 HiBit Degradation Maximum (%)” value in assay [1] is “A (“A” indicates maximum degradation ≥ 75%)”. Moreover, in assay [1] (setting [2]), the IC50 is greater than 100 nM. On HiBit-BRM fusion protein, the “BRM HiBit Degradation Maximum (%)” value was “A (“A” indicates maximum degradation ≥ 75%)” and the IC50 is greater than 10 nM.
In the case of `Cc1ncsc1-c1ccc(CNC(=O)[C@@H]2C[C@@H](O)CN2C(=O)[C@@H](NC(=O)CCCCCCCCCCCCCC(=O)N2CC(c3c[nH]c4nnc(-c5ccccc5O)cc34)C2)C(C)(C)C)cc1` [Compound 39, (2S,4R)-4-hydroxy-1-((S)-2-(15-(3-(3-(2-hydroxyphenyl)-7H-pyrrolo[2,3-c]pyridazin-5-yl)azetidin-1-yl)-15-oxopentadecanamido)-3,3-dimethylbutanoyl)-N-(4-(4-methylthiazol-5-yl)benzyl)pyrrolidine-2-carboxamide], in assay [1], the Dmax is less than 50%. Further, on HiBit-BRM fusion protein, the “BRM HiBit Degradation Maximum (%)” value is on record as “C (“C” indicates maximum degradation < 50%)”.
As for `Cc1ncsc1-c1ccc(CNC(=O)[C@@H]2C[C@@H](O)CN2C(=O)[C@@H](NC(=O)CCCCCCCNCCC(=O)N2CC(c3c[nH]c4nnc(-c5ccccc5O)cc34)C2)C(C)(C)C)cc1` (racemic) [Compound 56, (2S,4R)-4-hydroxy-1-((S)-2-(8-((3-(3-(3-(2-hydroxyphenyl)-7H-pyrrolo[2,3-c]pyridazin-5-yl)azetidin-1-yl)-3-oxopropyl)amino)octanamido)-3,3-dimethylbutanoyl)-N-(4-(4-methylthiazol-5-yl)benzyl)pyrrolidine-2-carboxamide], in assay [1], the Dmax was less than 50%. Further, at HiBit-BRM fusion protein, the “BRM HiBit Degradation Maximum (%)” value is recorded as “B (“B” indicates maximum degradation ≥ 50%)” and the DC50 is greater than 1000 nM.
Consider `Cc1ncsc1-c1ccc(CNC(=O)[C@@H]2C[C@@H](O)CN2C(=O)[C@@H](NC(=O)CCCN2CC(c3cc4cc(-c5ccccc5O)nnc4[nH]3)C2)C(C)(C)C)cc1` (racemic) [Compound 60, (2S,4R)-4-hydroxy-1-((S)-2-(4-(3-(3-(2-hydroxyphenyl)-7H-pyrrolo[2,3-c]pyridazin-6-yl)azetidin-1-yl)butanamido)-3,3-dimethylbutanoyl)-N-(4-(4-methylthiazol-5-yl)benzyl)pyrrolidine-2-carboxamide], for which the Dmax in assay [1] is less than 50%. Moreover, at HiBit-BRM fusion protein, the “BRM HiBit Degradation Maximum (%)” value was “C (“C” indicates maximum degradation < 50%)”.
Regarding `Cc1ncsc1-c1ccc([C@H](C)NC(=O)[C@@H]2C[C@@H](O)CN2C(=O)[C@@H](c2cc(N3CCC(N4CC(c5cc6cc(-c7ccccc7O)nnc6[nH]5)C4)CC3)no2)C(C)C)cc1` (racemic) [Compound 248, (2S,4R)-4-hydroxy-1-((R)-2-(3-(4-(3-(3-(2-hydroxyphenyl)-7H-pyrrolo[2,3-c]pyridazin-6-yl)azetidin-1-yl)piperidin-1-yl)isoxazol-5-yl)-3-methylbutanoyl)-N-((S)-1-(4-(4-methylthiazol-5-yl)phenyl)ethyl)pyrrolidine-2-carboxamide], the Dmax in assay [1] is greater than 50%. Also, in assay [1] (setting [2]), the DC50 is greater than 100 nM. Further, at HiBit-BRM fusion protein, the “BRM HiBit Degradation Maximum (%)” value is “A (“A” indicates maximum degradation ≥ 75%)” and the DC50 is greater than 10 nM.

Source of the values: patent publication US20240024488A1, “COMPOUNDS AND USES THEREOF” (Foghorn Therapeutics Inc., priority 2020, published 2024).
